# Laboratory results: patent US20110059869A1, “Method for Increasing Enzymatic Reactivity” (RIKEN, priority 2008, published 2011)
# Tests used:
# [1] = State of streptavidin bead reaction solution during enzymatic reaction; type: physicochemical; conditions: 0.6 M additive; extended / three hours restriction enzyme reaction
# Source text: Thus, with no nonuniformity in enzymatic activity, the various enzymatic reactions were promoted and the quantity of target DNA recovered increased.
# This was attributed to characteristics such as the viscosity and diffusing effect of trehalose or sorbitol.
# restriction enzyme PstI [2] = experiment: PstI cleavage reaction in solution (DNA fragment III); type: biochemical; conditions: normal reaction solution, with vs without 0.6 M trehalose; three hours
# Procedure: Biotin-labeled DNA fragment III (Seq. ID No. 6, Scheme 4) was cleaved at the restriction enzyme PstI site in solution and the 104 by DNA fragment that was released was examined. Two forms of reaction solution (DNA fragment III 500 ng, 1× PSTI buffer, 1× BSA, restriction enzyme 40 units) were prepared: a total of 50 uL trehalose (+) reaction solution to which D(+)-trehalose was added to a final concentration of 0.6 M, and a total of 50 uL trehalose (−) reaction solution, to which no trehalose was added. The reaction solutions were reacted for 3 hours at 37° C., a proteinase K reaction was conducted, phenol chloroform treatment was carried out, and precipitation from ethanol was conducted. The precipitate of the DNA fragment obtained was dissolved in 1× TE (pH 7.5) and analyzed with Bioanalyzer DNA 1000 assay (Agilent Technologies).
# restriction enzyme PstI [3] = experiment: PstI cleavage reaction on a spherical bead surface (DNA fragment III); type: biochemical; conditions: DNA adsorbed to beads, 0.6 M trehalose vs none
# Procedure: Biotin-labeled DNA fragment III (Seq. ID No. 6, Scheme 4) was cleaved at the restriction enzyme PstI site on the surface of streptavidin beads and the 104 by DNA fragment released was examined. DNA fragment III (500 ng) and 2× binding buffer were admixed in equal volume quantities, a solution of beads suspended in 1× binding buffer was added, and the mixture was gently stirred with top to bottom inversion and rotation for 15 minutes at room temperature to induce adsorption. The beads onto which the sample had adsorbed were recovered with a magnetic stand, washed three times with 1× binding buffer, and washed once with 1× PstI buffer. Two types of reaction solution (1× PstI buffer, 1× BSA restriction enzyme 40 units) were prepared: a trehalose (+) system to which D(+)-trehalose was added to a final concentration of 0.6 M, and a trehalose (−) system to which no trehalose was added. Each of the reaction solutions was admixed to beads that had been washed and the mixtures were reacted for three hours at 37° C. The beads were recovered with the magnetic stand and cleaved with restriction enzyme. […] The precipitate of DNA fragments obtained was dissolved in 1× TE (pH 7.5) and analyzed with Bioanalyzer DNA 1000 assay (Agilent Technologies).
# DNA polymerase = experiment: Solexa sequencing system, cluster amplification reaction on DNA-immobilized chip; type: biochemical; conditions: for num of CAGE tag / num of sequence read: trehalose 0.6 M in cluster amplification
# Procedure: The Solexa sequencing system incorporates the steps of adsorbing, immobilizing, and amplifying a DNA template on a flat chip. An examination was conducted to see how the sequence analysis level would change due to the addition of trehalose in the template amplification reaction of the Solexa sequencing system.
# In the process of the Solexa sequencing system, attention was focused on the cluster amplification reaction conducted on a DNA-immobilized chip. In this reaction, DNA immobilized on the chip was amplified with DNA polymerase to obtain identical fragments referred to as a cluster (Scheme 9). Amplification was conducted by adding trehalose to the reaction solution to a final concentration of 0.6 M, and a comparison was made with the results obtained when no trehalose was added (FIG. 10). The sample employed here was a 27 by DNA fragment that had been prepared by the CAGE method (obtained by cleaving just 27 by off of the 5′ end of cDNA).
# In the same manner as in 10 above, trehalose was added to a final concentration of 0.3 M to a reaction solution and amplification was conducted in a Solexa sequencing system. The results were compared to those obtained when no trehalose was added. The samples employed, prepared by the CAGE method (obtained by cleaving just 27 by off the 5′ end of the cDNA), were different 27 by DNA fragments than those in 10 above.
# restriction enzyme BceAI = experiment: BceAI cleavage of biotin-labeled 300 bp DNA fragments adsorbed to streptavidin beads; type: biochemical
# Procedure: Biotin-labeled 300 by DNA fragments adsorbed (bound) to streptavidin beads were reacted with the restriction enzyme BceAI and the final concentration of the trehalose that was added to the system was examined as follows.
# PCR was conducted with biotin-labeled primers (Seq. ID Nos. 1 and 2) on 300 by DNA fragments using pFLCIII vector as template. The fragments were cleaved at the type II restriction enzyme site BceAI, releasing 50 by DNA fragments that were detected. Paramagnetic streptavidin beads were washed with accessory 1× binding buffer, recovered with a magnetic stand to remove the supernatant, and then suspended in the same buffer. Equal volumes of the PCR product-containing solution and 2× binding buffer were mixed, the bead solution was added, and the mixture was gently stirred with top to bottom inversion and rotation for 15 minutes at room temperature to induce adsorption. The magnetic stand was used to recover the sample adsorption beads, which were washed three times with 1× binding buffer. They were then washed once with 1× BceAI buffer. […] The reaction solutions were added to washed beads, mixed, and reacted for 3 hours at 37° C. The beads were recovered with the magnetic stand and cleaved with restriction enzyme. The supernatant containing the cDNA that had been released was reacted with proteinase K, treated with phenol chloroform, and precipitated from ethanol. […]
# [4] = 0.3 M trehalose in cluster amplification vs none
smiles,measurement,setting,value
"OC[C@H]1O[C@H](O[C@H]2O[C@H](CO)[C@@H](O)[C@H](O)[C@H]2O)[C@H](O)[C@@H](O)[C@@H]1O [trehalose, D(+)-trehalose]",uniformity of beads in the reaction solution,[1],maintaining better uniformity in the reaction solution
same,yield of released DNA fragment,restriction enzyme PstI [2],the same yield
same,yield of released DNA fragment,restriction enzyme PstI [3],higher yield
same,fluorescence intensity of each base in the CAGE samples,DNA polymerase; [4],higher level of fluorescence intensity
same,sequence level,DNA polymerase; [4],increased
same,length of the sequence that was determined,DNA polymerase; 0.6 M trehalose vs none,increased
same,regions prepared by the CAGE method (CAGE tag) among DNA fragments analyzed,DNA polymerase; 0.6 M trehalose vs none,more regions prepared by the CAGE method (the CAGE tag) were contained
same,fluorescence intensity of each base,"DNA polymerase; 0.6 M trehalose, data not shown",strongly displayed
same,num of CAGE tag,DNA polymerase; region s1,196840
same,num of sequence read,DNA polymerase; region s1,252820
same,num of CAGE tag,DNA polymerase; region s2,421412
same,num of sequence read,DNA polymerase; region s2,523387
same,num of CAGE tag,DNA polymerase; region s3,540268
same,num of sequence read,DNA polymerase; region s3,648786
same,num of CAGE tag,DNA polymerase; region s5,317440
same,num of sequence read,DNA polymerase; region s5,392534
same,num of CAGE tag,DNA polymerase; region s6,627739
same,num of sequence read,DNA polymerase; region s6,728614
same,num of CAGE tag,DNA polymerase; region s7,798438
same,num of sequence read,DNA polymerase; region s7,904101
same,num of CAGE tag,DNA polymerase; total of regions,2902137
same,num of sequence read,DNA polymerase; total of regions,3450242
same,change in yield of 50 by fragments with trehalose concentration,"restriction enzyme BceAI; 0 M, 0.3 M, 0.6 M, and 0.8 M trehalose",No change was observed beyond 0.6 M
same,yield of 50 by fragments released by cleavage,"restriction enzyme BceAI; trehalose added vs not added, beads, 3 hours at 37° C.",increased
